Measured values taken from patent EP4790048A1, “S1PR4 REGULATOR COMPOUND FOR AUTOIMMUNE DISEASE TREATMENT AND APPLICATION THEREOF” (Shengyuan Zetong (Shanghai) Pharmaceutical Co., Ltd, priority 2023, dated 2025).
Read-outs that look alike come from different tables or passages of the source.

How the values were obtained:
S1PR2 = target: T1, S1PR2 (Homo sapiens, UniProt O95136); assay: FLIPR assay, S1PR2-CHO cell line; assay type: cell-based; conditions: mean ± SD
T1 construct: expressed in transfected cells
T1 sequence (O95136 whole entry, species assumed): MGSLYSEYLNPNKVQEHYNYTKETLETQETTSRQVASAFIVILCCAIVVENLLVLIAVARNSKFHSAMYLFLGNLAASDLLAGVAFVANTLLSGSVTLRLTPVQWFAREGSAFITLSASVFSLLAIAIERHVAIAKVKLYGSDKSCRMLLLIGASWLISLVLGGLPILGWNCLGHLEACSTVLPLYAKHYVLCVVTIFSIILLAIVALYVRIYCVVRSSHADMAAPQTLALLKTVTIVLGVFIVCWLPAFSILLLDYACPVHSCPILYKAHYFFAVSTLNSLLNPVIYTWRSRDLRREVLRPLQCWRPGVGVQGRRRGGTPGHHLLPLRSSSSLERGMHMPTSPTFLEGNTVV

[1] = Pharmacokinetic property testing in rats; assay type: in vivo, SD rats; conditions: for CL_obs / Vss_obs / AUC(0-t) / Cmax / half-life / Tmax / F (%): male SD rats; for AUC(0-t) / Cmax / half-life / Tmax / bioavailability: Sprague-Dawley, rat, in vivo; for Tmax: 3 per group; for bioavailability: male, oral, 10 mg/kg; for F (%): oral bioavailability, PO 10 mg/kg vs IV 1 mg/kg
From the text: In the structure-activity relationship discussion, the inventors obtained key compound 22. Based on compound 22, the polar head of the compound was modified as chiral pyrrolidine carboxylic acid, yielding selective S1PR4 agonists 30 and 67. We conducted pharmacokinetic property analyses on compounds 22, 30, and 67, respectively.

SD rats = assay: MIA-induced osteoarthritis (OA) model in rats; assay type: in vivo; conditions: for gross observation of knee joint femoral condyle cartilage: Day 15 dissection, 5 rats per group
Procedure: SD rats, approximately 200 g, male. Purchased from Shanghai Bikai Animal Co., Ltd. Adaptive feeding was conducted for about 7 days.
3.1.1 Anesthesia: the rat was placed into the anesthesia box, the O2 gas source and the gas delivery pump were turned on, and the gas adjustment knob was rotated to set the ratio of O2 to isoflurane at 8:2. The anesthesia depth knob was adjusted: first the indicator was turned to 3 to induce deep anesthesia in the rat; during the subsequent surgical procedure, the indicator was adjusted to 1.5 to maintain anesthesia. The three-way valve was opened to deliver gas into both the anesthesia box and the rat anesthesia mask.
The syringe needle was inserted at a 45° angle to the plateau along the lateral side of the patellar ligament, as shown in the figure below. The Control group is injected with 50 µl of 0.9% sterile normal saline, while the other groups are injected with 50 µl of sterile normal saline containing 3 mg of MIA. After the procedure, the rat was removed, placed in a breeding cage, and irradiated with an incandescent lamp to help restore body temperature until the rat recovers from anesthesia.
The Control group was administered 5% DMSO + 35% PEG400 + 60% normal saline. The compounds were dissolved in a system consisting of 5% dimethyl sulfoxide (DMSO), 35% polyethylene glycol 400 (PEG 400), and 60% normal saline. The drug solutions were prepared on the evening one day before administration.
The rats were acclimated for 1 week and randomly divided into groups, with a total of 10 rats. The Control group was administered 5% DMSO + 35% PEG400 + 60% normal saline, while the other groups were given the test compounds dissolved in 5% DMSO + 35% PEG400 + 60% normal saline.
3.4.1. From Day 1 to Day 14 of the experiment, the rats were administered intragastrically once daily, with a gavage volume of 5 mL/kg. The Control group and Model group were given 5% DMSO + 35% PEG400 + 60% normal saline throughout the experiment, while the other groups were administered the corresponding drugs.
On Day 7 and Day14 of the experiment, behavioral and joint pain tests were performed on the rats. To minimize confounding factors, the tests were conducted 1 hour after administration at a fixed time, preventing variations in the rats' condition at different time points from affecting the experimental results. The rats were allowed to acclimate to the environment for 20 minutes before the start of the experiment. • (1) Observation of walking distance and rearing times within five minutes: the dimensions of the resin box were measured and a paper sheet of the corresponding size was prepared. 1 cm × 1 cm grids were drawn on the paper sheet. The paper sheet was sealed with a transparent tape to prevent damage from rat excrement. Then the paper sheet with 1 cm × 1 cm grids was placed into the transparent resin box, ensuring a flat bottom. A camera device was used to record the walking process and trajectory of the rat within 5 minutes, and the walking distance and rearing times of the rat were counted. • (2) Joint Pain Assessment: After fixing the rat and allowing it to calm down, its knee joint was gently bent. […] The knee joint pain severity in rats is reflected by the scores of leg withdrawal and vocalization. The joint pain assessment was performed every 5 seconds for a total of 5 times.
On Day 15 of the experiment, the rats were anesthetized, and blood was collected from their eyeballs. The serum was left to stand overnight at 4°C, centrifuged at 3600 rpm for 15 minutes at 4°C. The serum was aspirated and stored at -80°C. The rats were sacrificed by cervical dislocation. An incision was made along the knee joint on ice to remove fur, muscle, and other tissues. For each group, 5 rats were used; bilateral knee joints were dissected, and the color, roughness, and integrity of the femoral condyle surface were observed. The knee joint cartilage was then harvested and cryopreserved at -80°C. […]

SKG mice = assay: Curdlan-induced ankylosing spondylitis (AS) model in SKG mice; assay type: in vivo; conditions: compound 30 3 mg/kg; for peripheral clinical symptom scores: Week 12, compound 67 3 mg/kg intragastric daily, adalimumab 10 mg/kg i.p., P < 0.05 vs model group; for swelling of the wrist and ankle joints / spinal CT imaging scores: compound 67 3 mg/kg; for spinal CT imaging scores: adalimumab 10 mg/kg, P<0.05 vs model group
Procedure: After adaptive feeding, SKG mice were used for the experiment. Except for 5 mice as the blank control group, the other 20 mice were intraperitoneally injected with Curdlan (3 mg per mouse) at week 0 and week 2 of the experiment to establish an AS mouse model, and were randomly divided into 4 groups: model group, positive control group treated with adalimumab (10 mg/kg), compound 30 group (3 mg/kg), and compound 67 group (3 mg/kg), with 5 mice in each group. Mice in the compound 30 and 67 groups were intragastrically administered compound 30 and 67 daily starting from week 3.3 until sacrifice; the positive control group received intraperitoneal injection of adalimumab injection (first administration at week 3.3, second at week 9). Body weight was measured every week to adjust the dosage.
Clinical symptom observation of the limbs and toes were conducted, and their redness and swelling were scored, with a total score of 16 points (4 points per foot).
• 0 = No swelling • 1 = Mild swelling and redness on the top of the foot • 2 = Severe swelling and redness on the top of the foot • 3 = Severe swelling and redness in the wrist or ankle joint • 4 = Severe swelling in the wrist or ankle joint and toes.
CT scans were performed on mice at Week 13.4 and 14.3 of the experiment to obtain imaging data of the mice's bones and joints. Image WL: 1400; WW: 2000.
• 1. Spine (total 2 points): 1 point for narrowed intervertebral space, 2 points for complete fusion. • 2. Sacroiliac joints (1 point for each side, total 2 points): 0.5 points for blurred and sclerotic articular surface, 0.5 points for narrowed joint space. • 3. Zygapophyseal joints of the spine (1 point for each side, total 2 points): 0.5 points for narrowed joint space, 1 point for complete fusion.
Analysis of variance (ANOVA) was performed using IBM SPSS Statistics software to obtain statistical results of the dataset, with P < 0.05 considered statistically significant.

[2] = DAY7, 0.3 mg/kg intragastric once daily, vs Model group
[3] = DAY7, 3 mg/kg intragastric once daily, vs Model group
[4] = DAY14, 0.3 mg/kg, vs Model group

Structure (SMILES)	EC50 (S1PR2; read-out: EC50)	CL_obs ([1]; IV (1 mg/kg))	Vss_obs ([1]; IV (1 mg/kg))	CL_obs ([1]; PO (10 mg/kg))	Vss_obs ([1]; PO (10 mg/kg))	AUC(0-t) ([1]; IV (1 mg/kg))	Cmax ([1]; IV (1 mg/kg))	half-life ([1]; IV (1 mg/kg))	Tmax ([1]; IV (1 mg/kg))	AUC(0-t) ([1]; PO (10 mg/kg))	Cmax ([1]; PO (10 mg/kg))	half-life ([1]; PO (10 mg/kg))	Tmax ([1]; PO (10 mg/kg))	bioavailability [1]	F (%) [1]	OARSI score (severity of knee osteoarthritis) (SD rats; 1 mg/kg, vs Model group)	OARSI score (severity of knee osteoarthritis) (SD rats; 3 mg/kg, vs Model group)	pain index (SD rats; [2])	five-minute walking distance (SD rats; DAY7, 1 mg/kg, vs Model group)	pain index (SD rats; [3])	also measured
CCc1cc(/C(C)=N/OCc2ccc(-c3cnc(F)cn3)c(C)c2)ccc1CN1CC[C@H](C(=O)O)C1 [Compound 67, (S, E)-1-(2-ethyl-4-(1-(((4-(5-fluoropyrazin-2-yl)-3-methylbenzyl)oxy)imino)ethyl)benzyl)pyrrolidine-3-carboxylic acid]	> 10 µM	19.8 ± 0.67 mL/min/kg	1.52 ± 0.02 L/kg	25.8 ± 4.5 mL/min/kg	4.88 ± 1.17 L/kg	836 ± 27 ng·h/mL	958 ± 45.9 ng/mL	1.18 ± 0.01 h	0.08 h	6370 ± 1510 ng·h/mL	986 ± 277 ng/mL	2.17 ± 0.11 h	1.83 ± 1.89 h	76.2%	76.21%	showed significant effects	showed significant effects	significantly decreased	increased significantly	significantly decreased	pain index (SD rats; DAY7, 1 mg/kg intragastric once daily, vs Model group): significantly decreased; five-minute walking distance (SD rats; [4]): increased significantly; five-minute walking distance (SD rats; DAY14, 1 mg/kg, vs Model group): increased significantly; pain index (SD rats; DAY14, 1 mg/kg, vs Model group): significantly decreased; five-minute walking distance (SD rats; DAY14, 3 mg/kg, vs Model group): increased significantly; pain index (SD rats; DAY14, 3 mg/kg, vs Model group): significantly decreased; gross observation of knee joint femoral condyle cartilage (SD rats): cartilage of most rat knee joints became smooth and bright; serum IL-10 level (SD rats; Elisa, vs Model group): tended to upregulate; serum IL-17 level (SD rats; Elisa, vs Model group): tended to upregulate; Safranin O-Fast Green staining of knee joints (SD rats; vs Model group): enhanced Safranin O staining; peripheral clinical symptom scores (SKG mice): significantly lower; swelling of the wrist and ankle joints (SKG mice): significantly reduced swelling of the wrist and ankle joints; spinal CT imaging scores (SKG mice): significantly lower imaging scores
CCc1cc(/C(C)=N/OCc2ccc(-c3ccccc3)c(C)c2)ccc1CN1CC[C@H](C(=O)O)C1 [Compound 30]	> 10 µM	20.2 ± 7.33 mL/min/kg	3.59 ± 1.16 L/kg	17 ± 1.3 mL/min/kg	4.08 ± 0.32 L/kg	824 ± 284 ng·h/mL	438 ± 82.6 ng/mL	2.15 ± 0.06 h	0.08 h	9860 ± 794 ng·h/mL	1030 ± 91.9 ng/mL	2.78 ± 0.12 h	2 h	120%	119.7%	showed significant differences	showed significant differences	significantly decreased	increased significantly	significantly decreased	EC50 (S1PR2): no agonist activity; OARSI score (severity of knee osteoarthritis) (SD rats; 0.3 mg/kg, vs Model group): showed significant differences; five-minute walking distance (SD rats; DAY7, 0.3 mg/kg, vs Model group): increased significantly; five-minute walking distance (SD rats; [4]): increased significantly; pain index (SD rats; DAY14, 1 mg/kg, vs Model group): significantly decreased; five-minute walking distance (SD rats; DAY14, 3 mg/kg, vs Model group): increased significantly; pain index (SD rats; DAY14, 3 mg/kg, vs Model group): significantly decreased; gross observation of knee joint femoral condyle cartilage (SD rats): knee cartilage in most rats became smooth and glossy; Safranin O-Fast Green staining of knee joints (SD rats; vs Model group): enhanced safranin staining; peripheral clinical symptom scores (SKG mice): significantly lower; swelling of the wrist and ankle joints (SKG mice): significantly reduced swelling of the wrist and ankle joints; spinal CT imaging scores (SKG mice): significantly lower imaging scores
